In patent publication US20240391931A1 (Bristol-Myers Squibb Company, priority 2021, published 2024):

Key:
[1] = target: EGFR (Homo sapiens, UniProt P00533); assay: EGFR signaling (pEGFR Tyr1068/total EGFR MSD) in A431 cells; format: cell-based; set-up: endogenous in cells; host or cells: A431, N87; conditions: for EC50: A431 cells, read-out: A431 pEGFR EC50; for Selectivity A431 EC50/BT474 EC50: ratio A431 pEGFR EC50 to BT474 pHER2 EC50; for Selectivity A431 EC50/HEKYVMA EC50: ratio A431 pEGFR EC50 to HEK YVMA pHER2 EC50
EGFR, sequence (P00533 25-1210): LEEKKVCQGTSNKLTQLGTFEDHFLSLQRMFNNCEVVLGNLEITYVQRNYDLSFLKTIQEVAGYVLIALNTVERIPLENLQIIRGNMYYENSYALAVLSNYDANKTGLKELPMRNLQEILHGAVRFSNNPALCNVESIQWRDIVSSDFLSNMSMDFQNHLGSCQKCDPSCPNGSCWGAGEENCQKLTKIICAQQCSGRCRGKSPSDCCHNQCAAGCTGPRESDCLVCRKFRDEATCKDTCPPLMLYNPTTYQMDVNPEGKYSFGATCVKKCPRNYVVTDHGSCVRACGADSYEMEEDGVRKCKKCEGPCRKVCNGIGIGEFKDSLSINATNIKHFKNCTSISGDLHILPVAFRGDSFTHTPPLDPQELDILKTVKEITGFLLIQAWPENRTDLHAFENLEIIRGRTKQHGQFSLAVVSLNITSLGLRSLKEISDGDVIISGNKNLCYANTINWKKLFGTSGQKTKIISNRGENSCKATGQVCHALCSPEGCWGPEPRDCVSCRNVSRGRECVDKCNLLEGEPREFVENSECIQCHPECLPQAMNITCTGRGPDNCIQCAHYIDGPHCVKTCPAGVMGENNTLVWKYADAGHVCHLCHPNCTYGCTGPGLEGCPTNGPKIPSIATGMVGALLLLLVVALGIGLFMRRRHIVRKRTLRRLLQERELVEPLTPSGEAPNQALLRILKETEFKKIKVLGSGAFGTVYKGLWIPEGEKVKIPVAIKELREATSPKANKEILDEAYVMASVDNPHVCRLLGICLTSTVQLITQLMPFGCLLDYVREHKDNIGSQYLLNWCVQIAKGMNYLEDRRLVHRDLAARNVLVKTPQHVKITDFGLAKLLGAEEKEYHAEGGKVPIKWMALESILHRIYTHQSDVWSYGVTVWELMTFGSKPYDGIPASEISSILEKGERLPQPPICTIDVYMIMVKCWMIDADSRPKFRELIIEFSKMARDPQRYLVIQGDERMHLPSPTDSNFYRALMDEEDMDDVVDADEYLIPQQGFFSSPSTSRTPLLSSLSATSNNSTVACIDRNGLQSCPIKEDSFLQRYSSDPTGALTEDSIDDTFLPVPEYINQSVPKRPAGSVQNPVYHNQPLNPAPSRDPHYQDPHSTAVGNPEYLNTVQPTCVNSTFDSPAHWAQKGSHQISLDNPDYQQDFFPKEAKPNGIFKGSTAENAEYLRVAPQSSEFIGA
In short: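 EC50 was fitted with variable Hill slope from MSD pTyr1068/total EGFR ratios, expressed as % DMSO control. A431 cells were starved overnight, then exposed 1.5 h to eight concentrations from 10 to 0.005 μM in 1% FBS before a 10-min 100 ng/mL EGF pulse.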

[2] = target: T1, HER2 wildtype (WT) protein (Homo sapiens, UniProt P04626); assay: HER2 signaling (pHER2 Tyr1248/total HER2 MSD) in BT474 cells; format: cell-based; conditions: 1.5 hr compound, 1% FBS
T1 construct: BT474 and N87 cell lines which endogenously overexpress the HER2 wildtype (WT) protein; endogenous in cells; host or cells: BT474, N87
T1 sequence (P04626 23-1255): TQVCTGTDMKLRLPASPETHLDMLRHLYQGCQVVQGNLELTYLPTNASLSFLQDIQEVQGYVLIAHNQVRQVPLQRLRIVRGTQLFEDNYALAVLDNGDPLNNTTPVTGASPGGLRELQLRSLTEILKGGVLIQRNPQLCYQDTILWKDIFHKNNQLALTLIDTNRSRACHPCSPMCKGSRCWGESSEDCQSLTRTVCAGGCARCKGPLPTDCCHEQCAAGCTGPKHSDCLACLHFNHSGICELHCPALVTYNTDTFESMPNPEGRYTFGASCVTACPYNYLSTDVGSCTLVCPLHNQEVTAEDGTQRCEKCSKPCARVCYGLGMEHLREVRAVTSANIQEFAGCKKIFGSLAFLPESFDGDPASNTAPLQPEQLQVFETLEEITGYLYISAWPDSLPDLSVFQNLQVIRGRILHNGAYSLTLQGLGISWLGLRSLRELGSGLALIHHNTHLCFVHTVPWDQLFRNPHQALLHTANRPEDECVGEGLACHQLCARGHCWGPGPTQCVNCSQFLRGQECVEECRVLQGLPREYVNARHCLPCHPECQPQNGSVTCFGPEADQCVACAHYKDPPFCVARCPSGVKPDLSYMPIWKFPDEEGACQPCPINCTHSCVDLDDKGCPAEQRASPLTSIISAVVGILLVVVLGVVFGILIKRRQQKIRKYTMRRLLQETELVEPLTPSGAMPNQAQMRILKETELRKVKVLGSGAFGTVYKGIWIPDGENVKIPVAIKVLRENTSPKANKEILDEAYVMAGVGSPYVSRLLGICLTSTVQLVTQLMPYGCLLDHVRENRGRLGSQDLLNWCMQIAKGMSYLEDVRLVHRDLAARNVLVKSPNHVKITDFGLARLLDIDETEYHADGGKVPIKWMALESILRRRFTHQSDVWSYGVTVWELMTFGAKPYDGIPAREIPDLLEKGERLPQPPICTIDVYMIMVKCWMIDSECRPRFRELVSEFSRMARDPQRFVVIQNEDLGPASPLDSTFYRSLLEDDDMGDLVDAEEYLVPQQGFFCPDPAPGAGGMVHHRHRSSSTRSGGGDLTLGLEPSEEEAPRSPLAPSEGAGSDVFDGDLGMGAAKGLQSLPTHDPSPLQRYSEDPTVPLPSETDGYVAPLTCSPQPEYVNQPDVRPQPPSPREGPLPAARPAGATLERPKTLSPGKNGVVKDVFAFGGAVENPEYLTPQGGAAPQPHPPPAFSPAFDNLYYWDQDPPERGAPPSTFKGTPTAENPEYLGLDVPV
In short: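 BT474, N87 (HER2 WT) and NCI-H1781 (HER2 G776delinsVC) cells were treated for 1.5 h at 37° C in 1% FBS medium with compound at 0.0005–1.1 μM. pHER2 Tyr1248 was measured by MSD on whole-cell lysates and normalized to total HER2 as % DMSO. EC50 came from a variable-slope sigmoidal fit.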

SMILES	EC50 [1] [nM]	Selectivity A431 EC50/BT474 EC50 [1]	Selectivity A431 EC50/HEKYVMA EC50 [1]	EC50 [2] [nM]
Cc1ccc(Oc2ccc(Nc3ncnc4sc5c(c34)CCN(C(=O)/C=C/CN(C)C(C)(C)C)C5)cc2C)cn1 [Compound 33]	100 to 1000	B (B: ≥ 20 and < 100)	C (C: ≥ 10 and < 20)	< 100
Cc1ccc(Oc2ccc(Nc3ncnc4sc5c(c34)CCN(C(=O)/C=C/CN3CC4C(CO)C4C3)C5)cc2C)cn1 (stereo not drawn) [Compound 34]	100 to 1000	C (C: ≥ 10 and < 20)	E (E: >1 and < 5)	< 100
Cc1ccc(Oc2ccc(Nc3ncnc4sc5c(c34)CCN(C(=O)/C=C/CN(CCO)CCO)C5)cc2C)cn1 [Compound 37]	> 10000	A (A: ≥100)	B (B: ≥ 20 and < 100)	< 100
Cc1ccc(Oc2ccc(Nc3ncnc4sc5c(c34)CCN(C(=O)/C=C/CNC3COC3)C5)cc2C)cn1 [Compound 38]	100 to 1000	C (C: ≥ 10 and < 20)	D (D: ≥ 5 and < 10)	< 100
CNC(=O)CNC/C=C/C(=O)N1CCc2c(sc3ncnc(Nc4ccc(Oc5ccc(C)nc5)c(C)c4)c23)C1 [Compound 39]	1000 to 10000	C (C: ≥ 10 and < 20)	D (D: ≥ 5 and < 10)	100 to 350
Cc1ccc(Oc2ccc(Nc3ncnc4sc5c(c34)CCN(C(=O)/C=C/CN3CCCOCC3)C5)cc2C)cn1 [Compound 42]	100 to 1000	B (B: ≥ 20 and < 100)	B (B: ≥ 20 and < 100)	< 100
Cc1ccc(Oc2ccc(Nc3ncnc4sc5c(c34)CCN(C(=O)/C=C/CN3CC(O)CO3)C5)cc2C)cn1 (stereo not drawn) [Compound 43]	> 10000	B (B: ≥ 20 and < 100)	C (C: ≥ 10 and < 20)	350 to 1000
Cc1ccc(Oc2ccc(Nc3ncnc4sc5c(c34)CCN(C(=O)/C=C/CN3C4CCC3CC4)C5)cc2C)cn1 [Compound 44]	100 to 1000	D (D: ≥ 5 and < 10)	E (E: >1 and < 5)	< 100
Cc1ccc(Oc2ccc(Nc3ncnc4sc5c(c34)CCN(C(=O)/C=C/CNCCS(C)(=O)=O)C5)cc2C)cn1 [Compound 45]	100 to 1000	C (C: ≥ 10 and < 20)	D (D: ≥ 5 and < 10)	< 100
CCN1CCN(C/C=C/C(=O)N2CCc3c(sc4ncnc(Nc5ccc(Oc6ccc(C)nc6)c(C)c5)c34)C2)CC1 [Compound 46]	1000 to 10000	B (B: ≥ 20 and < 100)	C (C: ≥ 10 and < 20)	< 100
Cc1ccc(Oc2ccc(Nc3ncnc4sc5c(c34)CCN(C(=O)/C=C/CNC3CCOC3)C5)cc2C)cn1 (stereo not drawn) [Compound 47]	100 to 1000	C (C: ≥ 10 and < 20)	C (C: ≥ 10 and < 20)	< 100
Cc1ccc(Oc2ccc(Nc3ncnc4sc5c(c34)CCN(C(=O)/C=C/CNCC3CN(C)CCO3)C5)cc2C)cn1 (stereo not drawn) [Compound 48]	100 to 1000	B (B: ≥ 20 and < 100)	B (B: ≥ 20 and < 100)	< 100
Cc1ccc(Oc2ccc(Nc3ncnc4sc5c(c34)CCN(C(=O)/C=C/CNCc3cc(C)n[nH]3)C5)cc2C)cn1 [Compound 49]	100 to 1000	B (B: ≥ 20 and < 100)	D (D: ≥ 5 and < 10)	< 100
CC(=O)N1CCN(C/C=C/C(=O)N2CCc3c(sc4ncnc(Nc5ccc(Oc6ccc(C)nc6)c(C)c5)c34)C2)CC1 [Compound 51]	1000 to 10000	C (C: ≥ 10 and < 20)	E (E: >1 and < 5)	100 to 350
Cc1ccc(Oc2ccc(Nc3ncnc4sc5c(c34)CCN(C(=O)/C=C/CN3CC(O)C3)C5)cc2C)cn1 [Compound 53]	1000 to 10000	C (C: ≥ 10 and < 20)	D (D: ≥ 5 and < 10)	< 100

Next, values leading:

EC50 [1] [nM]	Selectivity A431 EC50/BT474 EC50 [1]	Selectivity A431 EC50/HEKYVMA EC50 [1]	EC50 [2] [nM]	SMILES
100 to 1000	C (C: ≥ 10 and < 20)	D (D: ≥ 5 and < 10)	< 100	Cc1ccc(Oc2ccc(Nc3ncnc4sc5c(c34)C(C)CN(C(=O)C=CCN(C)C)C5)cc2C)cn1 (single isomer, unassigned) [Compound 105]
100 to 1000	B (B: ≥ 20 and < 100)	C (C: ≥ 10 and < 20)	< 100	Cc1ccc(Oc2ccc(Nc3ncnc4sc5c(c34)C(C)CN(C(=O)C=CCN(C)C)C5)cc2C)cn1 (single isomer, unassigned) [Compound 106]
100 to 1000	B (B: ≥ 20 and < 100)	E (E: >1 and < 5)	< 100	Cc1cc(Nc2ncnc3sc4c(c23)CCN(C(=O)/C=C/CN(C)C)C4)ccc1Oc1ccc2ncnn2c1 [Compound 3, (E)-1-(4-((4-([1,2,4]triazolo[1,5-a]pyridin-6-yloxy)-3-methylphenyl)amino)-5,8-dihydropyrido[4′,3′:4,5]thieno[2,3-d]pyrimidin-7(6H)-yl)-4-(dimethylamino)but-2-en-1-one]
100 to 1000	B (B: ≥ 20 and < 100)	A (A: ≥100)	< 100	C=CC(=O)N1CCc2c(sc3ncnc(Nc4ccc(Oc5ccc6ncnn6c5)c(Cl)c4)c23)C1 [Compound 4, 1-(4-((4-([1,2,4]triazolo[1,5-a]pyridin-6-yloxy)-3-chlorophenyl)amino)-5,8-dihydropyrido[4′,3′:4,5]thieno[2,3-d]pyrimidin-7(6H)-yl)prop-2-en-1-one]
100 to 1000		B (B: ≥ 20 and < 100)	< 100	CN(C)C/C=C/C(=O)N1CCc2c(sc3ncnc(Nc4ccc(Oc5ccc6ncnn6c5)c(Cl)c4)c23)C1 [Compound 5, (E)-1-(4-((4-([1,2,4]triazolo[1,5-a]pyridin-6-yloxy)-3-chlorophenyl)amino)-5,8-dihydropyrido[4′,3′:4,5]thieno[2,3-d]pyrimidin-7(6H)-yl)-4-(dimethylamino)but-2-en-1-one]
< 100	B (B: ≥ 20 and < 100)	B (B: ≥ 20 and < 100)	< 100	Cc1cc(Nc2ncnc3sc4c(c23)CCN(C(=O)/C=C/CN2CC3CCC(C3)C2)C4)ccc1Oc1ccc2ncnn2c1 [Compound 20]
100 to 1000	B (B: ≥ 20 and < 100)	B (B: ≥ 20 and < 100)	< 100	Cc1ncc(Oc2ccc(Nc3ncnc4sc5c(c34)CCN(C(=O)/C=C/CN(C)C)C5)cc2C)cn1 [Compound 21, (E)-4-(dimethylamino)-1-(4-((3-methyl-4-((2-methylpyrimidin-5-yl)oxy)phenyl)amino)-5,8-dihydropyrido[4′,3′:4,5]thieno[2,3-d]pyrimidin-7(6H)-yl)but-2-en-1-one]
< 100	D (D: ≥ 5 and < 10)	E (E: >1 and < 5)	< 100	Cc1cc(Nc2ncnc3sc4c(c23)CCN(C(=O)/C=C/CN(C)C)C4)ccc1Oc1ccc2[nH]ncc2c1 [Compound 22, (E)-1-(4-((4-((1H-indazol-5-yl)oxy)-3-methylphenyl)amino)-5,8-dihydropyrido[4′,3′:4,5]thieno[2,3-d]pyrimidin-7(6H)-yl)-4-(dimethylamino)but-2-en-1-one]
< 100	D (D: ≥ 5 and < 10)	E (E: >1 and < 5)	< 100	Cc1cc(Nc2ncnc3sc4c(c23)CCN(C(=O)/C=C/CN(C)C)C4)ccc1Oc1ccc2cn[nH]c2c1 [Compound 23, (E)-1-(4-((4-((1H-indazol-6-yl)oxy)-3-methylphenyl)amino)-5,8-dihydropyrido[4′,3′:4,5]thieno[2,3-d]pyrimidin-7(6H)-yl)-4-(dimethylamino)but-2-en-1-one]
< 100	D (D: ≥ 5 and < 10)	D (D: ≥ 5 and < 10)	< 100	Cc1ccc(Oc2ccc(Nc3ncnc4sc5c(c34)CCN(C(=O)/C=C/CN3CC4CC3CO4)C5)cc2C)cn1 (stereo not drawn) [Compound 26]
< 100	B (B: ≥ 20 and < 100)	B (B: ≥ 20 and < 100)	< 100	Cc1ccc(Oc2ccc(Nc3ncnc4sc5c(c34)CCN(C(=O)/C=C/CNC3CC3)C5)cc2C)cn1 [Compound 40]
< 100	B (B: ≥ 20 and < 100)	C (C: ≥ 10 and < 20)	< 100	Cc1ccc(Oc2ccc(Nc3ncnc4sc5c(c34)CCN(C(=O)/C=C/CN3CCCC3C(N)=O)C5)cc2C)cn1 (stereo not drawn) [Compound 41]
< 100	D (D: ≥ 5 and < 10)	C (C: ≥ 10 and < 20)	< 100	Cc1ccc(Oc2ccc(Nc3ncnc4sc5c(c34)CCN(C(=O)/C=C/CNCc3ccsc3)C5)cc2C)cn1 [Compound 52]
